# Laboratory results reported in publication PMC11936910, “Population pharmacokinetics of polymyxin B in critically ill patients with carbapenem-resistant organisms infections: insights from steady-state trough and peak plasma concentration” (Frontiers in Pharmacology, 2025).
# Like-named read-outs stand apart in the source and are kept apart here. Bridge positions count the residues as written; N and C are the ends. Square brackets hold non-standard residues; d marks the D form. Peptide text beside a SMILES is read from it. * marks the point of attachment. X1 = CC[C@H](C)CCCCC(=O)*; Dab = NCC[C@H](N)C(=O)O
# Experiments:
# [1] = cited from earlier work
# Description: In contrast, the lower CL observed in previous studies by Li et al. (1.18 L·h^-1) and Yu et al. (1.59 L·h^-1) may reflect differences in renal function and patient characteristics. Our study reported a value of 18 L, which ...
# [2] = Population pharmacokinetic (PopPK) model of PMB, NONMEM, one-compartment; type: in vivo, critically ill patients
# Description: The PopPK model was developed using nonlinear mixed-effects modeling software: NONMEM (version 7.5.1, ICON plc, United States), Pirana (version 23.1.2, Certara L.P., United States), and PsN (version 5.3.0, https://uupharmacometrics.github.io/PsN/), with the first-order conditional estimation method including interaction (FOCE-I). The base model was selected based on goodness-of-fit (GOF) diagnostic plots, relative standard error (RSE) of parameters, and the objective function value (OFV). Spearman correlation was used to evaluate the relationships between covariates and individual empirical Bayesian estimates (EBEs) of PK parameters before covariate selection. A decrease in OFV >3.84 (P < 0.05, χ^2, df = 1) for forward addition and an increase >6.63 (P < 0.01, χ^2, df = 1) for backward elimination were the criteria for covariate inclusion. GOF plots were used to assess the model. To assess the stability of the final model and the precision of the PK parameters, a bootstrap method with 1,000 resampling iterations was performed. The final model was then subjected to 1,000 simulations for visual predictive checks (VPC) to evaluate the model’s predictive ability and accuracy. The accuracy and predictive performance of the model were further assessed using normalized prediction distribution errors (NPDE) plots. Statistical validation of the model was conducted using the t-test, Fisher’s test, Shapiro-Wilk test, and the Global test.
# The patients were divided into a modeling group and a validation group based on the chronological order of enrollment and in accordance with the inclusion and exclusion criteria. External validation of the final model was performed using the validation group data. The mean prediction error (MPE), mean absolute prediction error (MAPE) (Equations 1, 2), F20 (20% of the absolute value of the prediction error), and F30 were calculated by comparing the predicted values with the observed values. Model performance was considered acceptable if MPE% ≤ ±20%, MAPE% ≤ 30%, F20 ≥ 35%, and F30 ≥ 50% ([Mao et al., 2018]). MPE%=1/N∑i=1Npredi−obsi/obsi×100 (1) MAPE%=1/N∑i=1Npredi−obsi/obsi×100 (2) predi denotes the i-th predicted value, and obsi its corresponding observed value.
# A one-compartment model with first-order elimination best fit the population data of PMB in critically ill patients. Inter-individual variability was described using an exponential random effects model, while residual variability was described using both proportional and additive error models.
# [3] = cited from earlier work; remark: listed apart in the source
# Description: The association between PMB pharmacokinetics and CrCL is still debated.
# [4] = system: CRO strains; assay: MICs of PMB against CRO strains; type: cell-based, carbapenem-resistant organisms
# [5] = Steady-state trough and peak plasma concentrations of PMB (UPLC-MS/MS) and AUCss,24h estimation; type: in vivo, critically ill patients; conditions: for Cmax / AUC(0-t): human, plasma, iv; for Cmax: sample immediately after infusion, UPLC-MS/MS, read-out: Cpeak, ss; for AUC(0-t): two-point method (Ctrough,ss and Cpeak,ss, first-order elimination equation), mean ± SD, SD, read-out: Equation-based AUCss,24h
# Description: A single-center prospective study was conducted in the intensive care unit (ICU) of the First Affiliated Hospital of Army Medical University from August 2021 to July 2024. Inclusion criteria: (1) patients aged ≥18 years; (2) patients receiving intravenous PMB for CRO infections confirmed by pathogen testing; (3) patients receiving at least four consecutive doses of intravenous PMB, or a loading dose followed by at least three consecutive doses. Exclusion criteria: (1) patients with missing clinical data; (2) patients hospitalized for fewer than 7 days; (3) patients receiving any form of renal replacement therapy during PMB treatment; (4) pregnant women. The research protocol was approved by the Ethics Committee of our hospital (No. (A) KY2021064).
# After at least 48 h of treatment, two blood samples were collected: one immediately before the infusion and the other immediately after. The exact times of blood sampling and infusion were recorded for each patient. Plasma was separated by low-temperature, low-speed centrifugation and stored at −70°C until analysis.
# PMB concentrations were analyzed using a validated ultra-performance liquid chromatography-tandem mass spectrometry (UPLC-MS/MS) method. Briefly, using polymyxin E2 as the internal standard, the assay was linear over 0.2–20.0 mg·L^-1 and 0.05–5 mg·L^-1 (r > 0.995) for PMB1 and PMB2 respectively. […] PMB concentration was calculated as follows: total concentration of PMB = [PMB1 concentration/PMB1 molecular + PMB2 concentration/PMB2 molecular]*total PMB molecular ([Liu et al., 2023]).
# Data analysis was performed SPSS (version 26.0, IBM, United States) and GraphPad Prism (version 8.3.0, CA, United States). Variables with a normal distribution were expressed as mean ± standard deviation (SD), while non-normally distributed variables were reported as median (interquartile range, IQR). Categorical data were presented as percentages (%). Comparisons between two groups were conducted using the Mann-Whitney U test for non-normally distributed data and the independent t-test for normally distributed data. The estimation of AUCss,24h used the two-point method was presented in Equations 3–5 ([Liu et al., 2023]), while the estimation of AUCss,24h based on the PopPK model was obtained by dividing the total 24-hour drug dose by the individual clearance. Bland-Altman analysis was performed to evaluate the consistency of AUCss,24h estimates obtained by the two methods. AUCss,24h values were categorized as “within the therapeutic window” (50–100 mg·h·L^-1), and McNemar’s test and Kappa test were applied to assess the consistency of AUCss,24h classifications. ke=lnCpeak,ss−lnCtrough,ss/τ−Infusion (3) Csoi′ =Cpeak,ss/e^−ke⋅Infusion (4) AUCss,24h=Csoi^′−Ctrough,ss/ke×n (5) Infusion time; τ: dosing interval; Csoi' is the exploratory concentration at the start of dosing based on the one-compartment linear elimination pharmacokinetic assumption; ke: elimination rate constant; n is the number of doses within 24 h.
# [6] = CRO-infected patients, covariate TBW, ref Manchandani et al., 2018
# [7] = CRO-infected patients, ref Kubin et al., 2018
# [8] = Critically ill patients, covariate CrCL, ref Yu et al., 2020
# [9] = Cystic fibrosis patients, covariate TBW, ref Crass et al., 2021
# [10] = Kidney transplant patients, covariate CrCL, ref Li et al., 2021
# [11] = bootstrap median, 1,000 resampling iterations
structure (smiles),measurement,setting,value
"CC[C@H](C)CCCCC(=O)N[C@@H](CCN)C(=O)N[C@H](C(=O)N[C@@H](CCN)C(=O)N[C@H]1CCNC(=O)[C@H]([C@@H](C)O)NC(=O)[C@H](CCN)NC(=O)[C@H](CCN)NC(=O)[C@H](CC(C)C)NC(=O)[C@@H](Cc2ccccc2)NC(=O)[C@H](CCN)NC1=O)[C@@H](C)O [PMB, polymyxin B] (X1-[Dab]T[Dab][Dab][Dab][dF]L[Dab][Dab]T; lactam 4-C)",CL,[1]; [6],2.50 L/h
same,Vd,[1]; [6],34.30 L
same,CL,[1]; [7],2.37 L/h
same,Vd,[1]; [7],34.40 L
same,CL,[1]; [8],1.59 L/h
same,Vd,[1]; [8],20.50 L
same,CL,[1]; [9],2.09 L/h
same,Vd,[1]; [9],12.70 L
same,CL,[1]; [10],1.18 L/h
same,Vd,[1]; [10],12.90 L
same,CL,[2]; [11],2.02 L/h
same,V,[2]; [11],17.98 L
same,V,"[2]; final model estimate, modeling group n = 80",18 L
same,CL,"[2]; final model estimate, modeling group n = 80, 184 samples",2.03 L/h
same,Urinary recovery,"[3]; 17 patients, ref Sandri et al., 2013b",0.98% to 17.40
same,Urinary recovery rate,"[3]; four patients, ref Yu et al., 2020",23.56%
same,Share with MIC of PMB 16 mg·L^-1,"[4]; modeling group, 3/80",3.75%
same,Share with MIC of PMB 2 mg L^-1,"[4]; modeling group, 8/80",10%
same,Share with MIC of PMB 1 mg·L^-1,"[4]; modeling group, 11/80",13.75%
same,Share with MIC of PMB 2 mg·L^-1,"[4]; validation group, 2/15",13.33%
same,Share with MIC of PMB 1 mg·L^-1,"[4]; validation group, 4/15",26.67%
same,Share with MIC of PMB ≤0.5 mg·L^-1,"[4]; validation group, 9/15",60%
same,"AUCss,24h within the range of 50–100, share of values","[5]; estimated by the PPK model, 55/106 values (modeling and validation group)",51.89%
same,"AUCss,24h within the range of 50–100, share of values","[5]; estimated using the two-point method, 49/106 values",46.23%
same,Cmax,"[5]; modeling set (n = 80), median (IQR)",5730 ng/mL
same,AUC(0-t),[5]; modeling set,102000 ± 57900 ng·h/mL
same,Cmax,"[5]; validation set (n = 15), median (IQR)",4340 ng/mL
same,AUC(0-t),[5]; validation set,90500 ± 43400 ng·h/mL
same,"Model-based AUCss,24h","[5]; modeling set, total 24-hour dose divided by individual clearance from PopPK model, median (IQR)",74.07 (55.81–94.07) mg·h/L
